This note sets out measurements from patent publication US11370796B2, “Substituted pyrazoles as LRRK2 inhibitors” (OSCOTEC INC., priority 2017, dated 2022).

In the first assay the target is LRRK2 (leucine-rich repeat kinase 2) (Homo sapiens (Human), UniProt Q5S007). Put plainly: Inhibitory effect on LRRK2 in vitro (LANCE kinase assay). The format is biochemical. The note with it: Table 1, class symbols; read-out: LRRK2 inhibition rate (IC50). The method, then: The inhibitory effect of Compounds 1 to 62 on LRRK2 (leucine-rich repeat kinase 2) in vitro was measured. In the analysis of the results, IC50 values were calculated for a quantitative comparison of the in vitro activity.
Chain of LRRK2 (leucine-rich repeat kinase 2) (Q5S007 whole entry): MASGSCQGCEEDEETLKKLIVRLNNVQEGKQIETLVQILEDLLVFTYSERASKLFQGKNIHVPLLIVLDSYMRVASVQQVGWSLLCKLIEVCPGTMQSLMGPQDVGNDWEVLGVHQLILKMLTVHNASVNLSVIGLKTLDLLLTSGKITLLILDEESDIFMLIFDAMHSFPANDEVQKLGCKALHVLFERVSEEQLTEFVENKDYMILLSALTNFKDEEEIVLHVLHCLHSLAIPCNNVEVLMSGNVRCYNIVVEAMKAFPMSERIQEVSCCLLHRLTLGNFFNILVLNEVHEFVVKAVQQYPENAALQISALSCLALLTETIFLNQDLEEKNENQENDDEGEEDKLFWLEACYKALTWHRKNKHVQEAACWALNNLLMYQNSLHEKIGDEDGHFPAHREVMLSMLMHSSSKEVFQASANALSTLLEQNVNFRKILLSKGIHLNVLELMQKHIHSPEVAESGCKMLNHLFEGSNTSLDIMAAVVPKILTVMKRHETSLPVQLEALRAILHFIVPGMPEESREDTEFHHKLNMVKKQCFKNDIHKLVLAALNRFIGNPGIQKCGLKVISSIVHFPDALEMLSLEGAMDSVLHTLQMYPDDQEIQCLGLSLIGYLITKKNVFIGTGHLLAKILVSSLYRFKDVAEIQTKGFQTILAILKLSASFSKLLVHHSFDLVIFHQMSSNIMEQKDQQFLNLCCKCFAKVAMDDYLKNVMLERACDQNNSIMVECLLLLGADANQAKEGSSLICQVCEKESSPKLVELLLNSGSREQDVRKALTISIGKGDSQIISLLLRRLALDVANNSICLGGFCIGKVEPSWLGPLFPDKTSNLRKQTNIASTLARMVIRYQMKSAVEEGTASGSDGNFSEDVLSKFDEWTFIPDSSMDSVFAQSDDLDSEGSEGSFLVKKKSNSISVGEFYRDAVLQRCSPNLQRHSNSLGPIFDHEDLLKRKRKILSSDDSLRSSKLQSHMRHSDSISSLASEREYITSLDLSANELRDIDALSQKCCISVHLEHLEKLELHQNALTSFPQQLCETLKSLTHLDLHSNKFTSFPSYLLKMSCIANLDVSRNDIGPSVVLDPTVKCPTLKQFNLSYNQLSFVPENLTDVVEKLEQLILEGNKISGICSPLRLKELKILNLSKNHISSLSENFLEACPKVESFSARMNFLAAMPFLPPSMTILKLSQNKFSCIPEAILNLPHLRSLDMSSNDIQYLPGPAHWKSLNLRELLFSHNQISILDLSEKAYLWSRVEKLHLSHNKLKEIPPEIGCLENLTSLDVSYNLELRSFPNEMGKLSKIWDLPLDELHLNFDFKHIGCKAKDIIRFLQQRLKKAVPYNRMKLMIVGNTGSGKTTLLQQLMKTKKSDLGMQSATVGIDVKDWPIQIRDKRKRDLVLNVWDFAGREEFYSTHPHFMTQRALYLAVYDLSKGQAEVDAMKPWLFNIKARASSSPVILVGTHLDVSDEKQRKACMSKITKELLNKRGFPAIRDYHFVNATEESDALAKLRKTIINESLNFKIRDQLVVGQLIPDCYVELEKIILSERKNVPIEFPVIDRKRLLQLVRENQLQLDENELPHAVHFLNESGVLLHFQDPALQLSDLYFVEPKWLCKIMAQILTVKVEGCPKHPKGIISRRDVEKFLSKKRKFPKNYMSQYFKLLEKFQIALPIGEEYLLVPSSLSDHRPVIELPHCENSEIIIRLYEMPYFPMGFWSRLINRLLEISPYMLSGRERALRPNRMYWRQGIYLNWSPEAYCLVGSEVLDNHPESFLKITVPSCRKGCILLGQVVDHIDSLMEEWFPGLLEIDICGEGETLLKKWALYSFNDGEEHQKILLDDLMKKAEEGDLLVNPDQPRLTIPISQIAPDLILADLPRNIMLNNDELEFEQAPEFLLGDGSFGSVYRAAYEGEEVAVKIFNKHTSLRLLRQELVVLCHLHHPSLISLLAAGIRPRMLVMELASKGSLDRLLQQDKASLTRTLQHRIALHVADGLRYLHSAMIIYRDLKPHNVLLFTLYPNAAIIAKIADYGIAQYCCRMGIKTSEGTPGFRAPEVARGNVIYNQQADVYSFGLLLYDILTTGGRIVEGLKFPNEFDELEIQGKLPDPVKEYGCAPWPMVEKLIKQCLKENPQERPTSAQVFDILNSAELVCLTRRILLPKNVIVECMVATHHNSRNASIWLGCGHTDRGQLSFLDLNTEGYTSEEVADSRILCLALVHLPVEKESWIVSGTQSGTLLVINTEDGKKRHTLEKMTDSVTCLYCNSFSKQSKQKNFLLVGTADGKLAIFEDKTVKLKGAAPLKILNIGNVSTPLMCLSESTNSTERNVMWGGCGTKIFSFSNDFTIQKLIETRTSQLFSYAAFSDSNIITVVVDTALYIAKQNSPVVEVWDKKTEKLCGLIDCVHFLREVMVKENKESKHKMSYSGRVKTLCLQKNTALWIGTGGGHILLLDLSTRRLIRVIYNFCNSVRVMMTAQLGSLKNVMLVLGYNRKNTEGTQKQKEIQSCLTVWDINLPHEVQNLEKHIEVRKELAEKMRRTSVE
After the compound was dissolved in 100% DMSO at 10 mM, it was serially diluted to the range of 1 μM to 10 μM using biochemical LRRK2 assay buffer (50 mM HEPES (4-(2-hydroxyethyl)-1-piperazineethanesulfonic acid) pH 7.5, 10 mM MgCl2, 1 mM EGTA (1,2-bis(o-aminophenoxy)ethane-N,N,N′,N′-tetraacetic acid), 2 mM DTT (dithiothreitol), and 0.01% TWEEN-20 (Aldrich)). Purified LRRK2 (CARNA BIOSCIENCES) was added to a black U-bottom 96-well microtiter plate containing 6 μl of the serially diluted compound, followed by incubation at room temperature for 30 minutes. For the kinase reaction, ATP and a substrate solution specific urea-polypeptide (ULIGHT™-poly TK, PerkinElimer) were added. The reaction was carried out at room temperature for 1 hour, and it was detected with an detection solution (brand name: LANCE™) containing EDTA. A LANCE detection solution containing europium-labeled antibody ([…] PT66) was added, followed by incubation at room temperature for 50 minutes, to terminate the kinase experiment. The phosphorylated substrate was detected by 665 nm emission measurement. IC50 values were calculated by a non-linear regression analysis using a Prism program (PRISM™ software) with reference to the absence of a kinase inhibitor.
As a comparative assay, a compound LRR2-IN-1, that known to be a reference compound for LRRK2 inhibitor, have also tested an inhibitory activity.
Background: In TR-FRET formats the signal depends on donor and acceptor labels being close together.
As a reminder, the IC50 is the concentration that inhibits the measured activity by half. Take `Cn1ncc(Nc2ncc3c(C(F)(F)F)cn(C)c3n2)c1Cl` [Compound 1, N-(5-chloro-1-methyl-1H-pyrazol-4-yl)-7-methyl-5-(trifluoromethyl)-7H-pyrrolo[2,3-d]pyrimidin-2-amine]: the IC50 fell in the range of 100 to 1000 nM. Same read-out and setting: in the case of `COc1nn(C(C)C)cc1Nc1ncc2c(Cl)cn(C)c2n1` [Compound 2, 5-chloro-N-(1-isopropyl-3-methoxy-1H-pyrazol-4-yl)-7-methyl-7H-pyrrolo[2,3-d]pyrimidin-2-amine] it was 10 to 100 nM; in that of `CC(C)n1cc(Nc2ncc3c(Cl)cn(C)c3n2)c(Cl)n1` [Compound 3, 5-chloro-N-(3-chloro-1-isopropyl-1H-pyrazol-4-yl)-7-methyl-7H-pyrrolo[2,3-d]pyrimidin-2-amine], 10 to 100 nM; in that of `Cn1cc(Cl)c2cnc(Nc3cn(C4CCOCC4)nc3C(F)(F)F)nc21` [Compound 4, 5-chloro-7-methyl-N-(1-(tetrahydro-2H-pyran-4-yl)-3-(trifluoromethyl)-1H-pyrazol-4-yl)-7H-pyrrolo[2,3-d]pyrimidin-2-amine], 100 to 1000 nM. On the same count and under the same terms, next, `Cn1ncc(Nc2ncc3c(Cl)cn(C)c3n2)c1Cl` [Compound 5, 5-chloro-N-(5-chloro-1-methyl-1H-pyrazol-4-yl)-7-methyl-7H-pyrrolo[2,3-d]pyrimidin-2-amine]: 10 to 100 nM; `CCn1cc(Cl)c2cnc(Nc3cnn(C)c3Cl)nc21` [Compound 6, 5-chloro-N-(5-chloro-1-methyl-1H-pyrazol-4-yl)-7-ethyl-7H-pyrrolo[2,3-d]pyrimidin-2-amine]: 10 to 100 nM. On to `CC(C)n1cc(Nc2ncc3c(Cl)cn(C(C)C)c3n2)c(Cl)n1` [Compound 7, 5-chloro-N-(3-chloro-1-isopropyl-1H-pyrazol-4-yl)-7-isopropyl-7H-pyrrolo[2,3-d]pyrimidin-2-amine], for which the half-inhibitory concentration (IC50) was 10 to 100 nM. The same measure, in the same setting: in the case of `CCn1cc(Cl)c2cnc(Nc3cn(C(C)C)nc3Cl)nc21` [Compound 8, 5-chloro-N-(3-chloro-1-isopropyl-1H-pyrazol-4-yl)-7-ethyl-7H-pyrrolo[2,3-d]pyrimidin-2-amine] it was 10 to 100 nM; in that of `CC(C)n1cc(Nc2ncc3c(Cl)cn(C)c3n2)c(C(F)(F)F)n1` [Compound 9, 5-chloro-N-(1-isopropyl-3-(trifluoromethyl)-1H-pyrazol-4-yl)-7-methyl-7H-pyrrolo[2,3-d]pyrimidin-2-amine], 100 to 1000 nM. On the same count and under the same terms, in the case of `COCCn1cc(Nc2ncc3c(Cl)cn(C)c3n2)c(C(F)(F)F)n1` [Compound 10, 5-chloro-N-(1-(2-methoxyethyl)-3-(trifluoromethyl)-1H-pyrazol-4-yl)-7-methyl-7H-pyrrolo[2,3-d]pyrimidin-2-amine] it was 100 to 1000 nM; in that of `CCCCn1cc(Nc2ncc3c(Cl)cn(C)c3n2)c(C(F)(F)F)n1` [Compound 11, N-(1-butyl-3-(trifluoromethyl)-1H-pyrazol-4-yl)-5-chloro-7-methyl-7H-pyrrolo[2,3-d]pyrimidin-2-amine], 1000 to 10000 nM; in that of `CCn1cc(Cl)c2cnc(Nc3cn(CCOC)nc3Cl)nc21` [Compound 12, 5-chloro-N-(3-chloro-1-(2-methoxyethyl)-1H-pyrazol-4-yl)-7-ethyl-7H-pyrrolo[2,3-d]pyrimidin-2-amine], 10 to 100 nM.

As to `CCn1cc(Cl)c2cnc(Nc3cn(CC4CC4)nc3Cl)nc21` [Compound 13, 5-chloro-N-(3-chloro-1-(cyclopropylmethyl)-1H-pyrazol-4-yl)-7-ethyl-7H-pyrrolo[2,3-d]pyrimidin-2-amine], the IC50 was in the range of 10 to 100 nM. The same measure, in the same setting: next, `CCn1cc(Cl)c2cnc(Nc3cn(C4CC4)nc3Cl)nc21` [Compound 14, 5-chloro-N-(3-chloro-1-cyclopropyl-1H-pyrazol-4-yl)-7-ethyl-7H-pyrrolo[2,3-d]pyrimidin-2-amine]: 10 to 100 nM; `Clc1nn(C2CC2)cc1Nc1ncc2c(Cl)cn(C3CC3)c2n1` [Compound 15, 5-chloro-N-(3-chloro-1-cyclopropyl-1H-pyrazol-4-yl)-7-cyclopropyl-7H-pyrrolo[2,3-d]pyrimidin-2-amine]: 10 to 100 nM; `CCn1cc(Cl)c2cnc(Nc3cnn(C4COC4)c3Cl)nc21` [Compound 16, 5-chloro-N-(5-chloro-1-(oxetan-3-yl)-1H-pyrazol-4-yl)-7-ethyl-7H-pyrrolo[2,3-d]pyrimidin-2-amine]: 10 to 100 nM.

On to `CCn1cc(Cl)c2cnc(Nc3cn(C4CCN(C)CC4)nc3Cl)nc21` [Compound 17, 5-chloro-N-(3-chloro-1-(1-methylpiperidin-4-yl)-1H-pyrazol-4-yl)-7-ethyl-7H-pyrrolo[2,3-d]pyrimidin-2-amine], for which the IC50 is 10 to 100 nM. Still for that read-out and setting: in the case of `CCn1cc(Cl)c2cnc(Nc3cn(C4CCOCC4)nc3Cl)nc21` [Compound 18, 5-chloro-N-(3-chloro-1-(tetrahydro-2H-pyran-4-yl)-1H-pyrazol-4-yl)-7-ethyl-7H-pyrrolo[2,3-d]pyrimidin-2-amine] it was 10 to 100 nM; in that of `CCn1cc(Cl)c2cnc(Nc3cn(C4CC(C)OC(C)C4)nc3Cl)nc21` (stereo not drawn) [Compound 19, 5-chloro-N-(3-chloro-1-(2,6-dimethyltetrahydro-2H-pyran-4-yl)-1H-pyrazol-4-yl)-7-ethyl-7H-pyrrolo[2,3-d]pyrimidin-2-amine], 10 to 100 nM; in that of `CCN1CCC(n2cc(Nc3ncc4c(Cl)cn(CC)c4n3)c(Cl)n2)CC1` [Compound 20, 5-chloro-N-(3-chloro-1-(1-ethylpiperidin-4-yl)-1H-pyrazol-4-yl)-7-ethyl-7H-pyrrolo[2,3-d]pyrimidin-2-amine], 10 to 100 nM.

As for `CCn1cc(Cl)c2cnc(Nc3cn(-c4ccc(F)cc4)nc3Cl)nc21` [Compound 21, 5-chloro-N-(3-chloro-1-(4-fluorophenyl)-1H-pyrazol-4-yl)-7-ethyl-7H-pyrrolo[2,3-d]pyrimidin-2-amine], the IC50 lay in the range of 100 to 1000 nM. Same read-out and setting: in the case of `CCn1cc(Cl)c2cnc(Nc3cnn(-c4ccc(Cl)cc4)c3Cl)nc21` [Compound 22, 5-chloro-N-(5-chloro-1-(4-chlorophenyl)-1H-pyrazol-4-yl)-7-ethyl-7H-pyrrolo[2,3-d]pyrimidin-2-amine] it was 100 to 1000 nM. Still for that read-out and setting: next, `CC(=O)N1CCC(n2ncc(Nc3ncc4c(Cl)cn(C)c4n3)c2Cl)CC1` [Compound 23, 1-(4-(5-chloro-4-(5-chloro-7-methyl-7H-pyrrolo[2,3-d]pyrimidin-2-ylamino)-1H-pyrazol-1-yl)piperidin-1-yl)ethanone]: 10 to 100 nM; `CCn1cc(Cl)c2cnc(Nc3cn(C4CCN(C(=O)C5CC5)CC4)nc3Cl)nc21` [Compound 24, (4-(3-chloro-4-(5-chloro-7-ethyl-7H-pyrrolo[2,3-d]pyrimidin-2-ylamino)-1H-pyrazol-1-yl)piperidin-1-yl)(cyclopropyl)methanone]: 10 to 100 nM. Still for that read-out and setting: in the case of `CCn1cc(Cl)c2cnc(Nc3cn(C4CCN(S(C)(=O)=O)CC4)nc3Cl)nc21` [Compound 25, 5-chloro-N-(3-chloro-1-(1-(methylsulfonyl)piperidin-4-yl)-1H-pyrazol-4-yl)-7-ethyl-7H-pyrrolo[2,3-d]pyrimidin-2-amine] it was under 10 nM; in that of `CCn1cc(Cl)c2cnc(Nc3cn(C4CCN(C(=O)C(C)C)CC4)nc3Cl)nc21` [Compound 26, 1-(4-(3-chloro-4-(5-chloro-7-ethyl-7H-pyrrolo[2,3-d]pyrimidin-2-ylamino)-1H-pyrazol-1-yl)piperidin-1-yl)-2-methylpropane-1-one], 10 to 100 nM.

The same assay, now with this note: purified LRRK2, Table 6; read-out: IC50.
Regarding `CCn1cc(Cl)c2cnc(Nc3cn(C4CCN(S(C)(=O)=O)CC4)nc3Cl)nc21` [Compound 25, 5-chloro-N-(3-chloro-1-(1-(methylsulfonyl)piperidin-4-yl)-1H-pyrazol-4-yl)-7-ethyl-7H-pyrrolo[2,3-d]pyrimidin-2-amine], the IC50 came out at 6.67 nM.
